Assay in all cases: NCI-60 cell line screen, 48 h
The subject of experiment [1] is SK-MEL-28 melanoma.
For experiment [2], the system named is NCI-H226 lung.
For experiment [3], the system named is UO-31 renal.
Experiment [4] has as its system K-562 leukemia.
Experiment [5] concerns NCI-H522 lung.
Experiment [6] deals with PC-3 prostate.
Experiment [7] has as its system OVCAR-5 ovarian.
For experiment [8], the system named is T-47D breast.
Experiment [9] concerns SF-539 CNS.
Experiment [10] has as its system SR leukemia.
Experiment [11] has as its system UACC-62 melanoma.
In experiment [12] the test system is CAKI-1 renal.
In experiment [13] the test system is SNB-19 CNS.
Experiment [14] has as its system SF-268 CNS.
In experiment [15] the test system is MCF7 breast.
Experiment [16] has as its system 786-0 renal.
The test system of experiment [17] is SF-295 CNS.
Experiment [18] has as its system A498 renal.
Experiment [19] deals with CCRF-CEM leukemia.
For experiment [20], the system named is NCI-H460 lung.

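Where inhibition never reached the appropriate level, the endpoint shown equals the highest concentration tested. Otherwise, values were interpolated linearly from a five-concentration, 48-hour dose response in 96-well plates. The concentration for full growth arrest is given as TGI.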

Data on 15 compounds can be found in PubChem BioAssay (NCI).

Regarding `CSc1ccc(C2C(Cl)C(=O)N2NC(=O)c2c(Cl)c(Cl)c(Cl)c(Cl)c2-c2nc3ccccc3[nH]2)cc1` (stereo unspecified), the TGI is 44.4 µM in experiment [1]; 38.5 µM in [2]; greater than 100 µM in [3]; greater than 100 µM in experiment [4]; 4.87 µM in [5]; 45.8 µM in [6]. Also, the TGI in experiment [7] is 53.4 µM; in experiment [8], 12.3 µM; in experiment [9], 53.4 µM; in experiment [10], greater than 100 µM; in [11], greater than 100 µM; in experiment [12] it was 42.8 µM. Besides, the TGI was 73.4 µM in experiment [13]; 64.4 µM in [14]; greater than 100 µM in [15]; 76.8 µM in experiment [16]; greater than 100 µM in [17]; 72.1 µM in experiment [18].
In the case of `O=C(Nc1ccc2nc(-c3ccccc3)cn2c1)Oc1ccccc1`, the TGI is greater than 100 µM in [1]; greater than 100 µM in experiment [2]; greater than 100 µM in experiment [3]; greater than 100 µM in [4]; 90.2 µM in experiment [5]; greater than 100 µM in experiment [6]. Moreover, the TGI in experiment [7] was greater than 100 µM; in experiment [8], 76.9 µM; in experiment [10], greater than 100 µM; in experiment [11], greater than 100 µM; in experiment [12], greater than 100 µM; in experiment [13], greater than 100 µM. Further, the TGI in experiment [14], in [19], in experiment [20], in experiment [15], in [16] and in experiment [17] was greater than 100 µM in each case. Further, the TGI in experiment [18] is greater than 100 µM.
For `c1ccc2c(c1)nc1n2CNCC1`, the TGI in experiment [1], in experiment [2], in experiment [3], in experiment [5], in experiment [6] and in experiment [7] was greater than 100 µM in each case. Besides, the TGI in experiment [8], in experiment [9], in experiment [10], in [11], in experiment [12] and in [13] was greater than 100 µM each time. The TGI in experiment [14], in [20], in experiment [15], in experiment [16], in experiment [17] and in [18] was greater than 100 µM throughout.
Consider `O=C1NNC(=O)C2C3c4ccccc4C(c4ccccc43)C12` (stereo unspecified), for which the TGI in experiment [1], in [2], in experiment [3], in [4], in experiment [6] and in experiment [7] was greater than 100 µM each time. In addition, the TGI in [8], in experiment [9], in [10], in experiment [11], in experiment [12] and in experiment [13] was greater than 100 µM in each case. Moreover, the TGI in experiment [14], in experiment [19], in experiment [20], in experiment [15], in experiment [16] and in experiment [17] was greater than 100 µM each time. In addition, the TGI in [18] is greater than 100 µM.
Regarding `CO/N=C(\C(=O)Nc1cncs1)c1csc(NC(c2ccccc2)(c2ccccc2)c2ccccc2)n1`, the TGI in experiment [1], in experiment [2], in [3], in [4], in experiment [5] and in experiment [6] was greater than 10 µM in each case. Also, the TGI in [7], in experiment [8], in [9], in experiment [10], in experiment [12] and in experiment [13] was greater than 10 µM throughout. For the same compound, the TGI in [14], in experiment [19], in experiment [20], in experiment [15], in experiment [16] and in experiment [17] was greater than 10 µM in each case. In addition, the TGI in experiment [18] was greater than 10 µM.
Consider `CNC(=O)N1CCN(C(=O)NC)CCN(C(=O)NC)CC1`, for which the TGI in [1], in experiment [2], in [3], in experiment [4], in experiment [5] and in experiment [6] was greater than 100 µM each time. Besides, the TGI in experiment [7], in experiment [8], in experiment [10], in experiment [11], in [13] and in experiment [14] was greater than 100 µM each time. Besides, the TGI in experiment [19], in experiment [20], in experiment [15], in [16], in experiment [17] and in experiment [18] was greater than 100 µM in each case.
On to `CCOC(=O)C(Cl)(NC(=O)c1ccc(F)cc1)C(F)(F)F` (stereo unspecified), for which the TGI in experiment [1], in experiment [2], in experiment [3], in [4], in experiment [5] and in [6] was greater than 100 µM throughout. In addition, the TGI in [7], in experiment [8], in [9], in experiment [10], in [12] and in [13] was greater than 100 µM throughout. For the same compound, the TGI in [14], in experiment [19], in [20], in experiment [15], in experiment [16] and in experiment [17] was greater than 100 µM in each case. Besides, the TGI in [18] is greater than 100 µM.
Turning to `O=C1C(Br)=CC2(C=C1Br)CCN=c1c(O)c3c(c(O)c12)=NC=N3`, the TGI in [1] is 29.9 µM; in [2] it was 37.4 µM; in [3] it was 29.4 µM; in experiment [4] it was 41.1 µM; in experiment [5] it was 28.1 µM; in [6], greater than 100 µM. In addition, the TGI in experiment [7] is 29.4 µM; in experiment [8], 33.7 µM; in [9], 32.1 µM; in [10] it was greater than 100 µM; in experiment [11] it was 24.2 µM; in [12], 41 µM. Also, the TGI in experiment [14] came out at 28.2 µM; in experiment [19] it was 48.9 µM; in experiment [20], 32.8 µM; in experiment [15] it was 28.5 µM; in [16], 30 µM; in experiment [17], 30 µM. In experiment [18], this compound registered a TGI of 33.2 µM.
Regarding `O=C1SCC(O)=C1/C=N/Nc1nc2ccccc2o1`, the TGI is greater than 100 µM in experiment [1]; 76.6 µM in experiment [2]; 88.6 µM in experiment [6]; greater than 100 µM in [7]; 54.7 µM in experiment [8]; 40.8 µM in experiment [9]. The TGI was greater than 100 µM in [10]; 46.1 µM in [11]; greater than 100 µM in [12]; greater than 100 µM in experiment [13]; greater than 100 µM in experiment [14]; 48.8 µM in experiment [19]. The TGI in experiment [20] was greater than 100 µM; in experiment [15], greater than 100 µM; in experiment [16] it was greater than 100 µM; in experiment [17], 72.4 µM; in [18] it was greater than 100 µM.
Regarding `CCC1c2[nH]c3ccccc3c2C[C@H]2C(=O)NC(CCC(=O)OC(C)(C)C)C(=O)N12` (stereo partly specified), the TGI in [1], in experiment [2], in [3], in experiment [4], in experiment [5] and in [6] was greater than 100 µM each time. For the same compound, the TGI in [7], in experiment [8], in [10], in experiment [11], in experiment [12] and in experiment [13] was greater than 100 µM in each case. Moreover, the TGI in experiment [14], in experiment [15], in experiment [16], in experiment [17] and in experiment [18] was greater than 100 µM throughout.
As to `CCCCn1c(C)c(C(=O)OCC)c2cc(OCc3ccc(C(=O)Nn4c(C)ccc4C)cc3)c(Br)cc21`, the TGI in [1], in experiment [2], in [4], in experiment [5], in [6] and in experiment [7] was greater than 100 µM in each case. Also, the TGI in experiment [8], in experiment [9], in experiment [10], in [11], in experiment [12] and in experiment [13] was greater than 100 µM each time. In addition, the TGI in [14], in [19], in [20], in [15], in experiment [16] and in experiment [17] was greater than 100 µM each time. The compound also came in with a TGI in [18] greater than 100 µM.
Regarding `CC1=C2C3=C(C)C(=O)C(C)(C)CC[C@@]3(C)[C@]2(C)CCC(C)(C)C1=O`, the TGI in experiment [2], in [3], in [4], in [5], in experiment [6] and in experiment [7] was greater than 100 µM throughout. The TGI in experiment [8], in experiment [9], in experiment [10], in experiment [11], in experiment [12] and in experiment [13] was greater than 100 µM in each case. In addition, the TGI in experiment [14], in experiment [19], in experiment [15], in experiment [16], in [17] and in experiment [18] was greater than 100 µM each time.
For `COc1ccc(OC)c2c1C(=O)C(Cl)=C(N1CCN(CCOCCO)CC1)C2=O`, the TGI in experiment [1] worked out at 30.9 µM; in experiment [2], 39.5 µM; in experiment [3], 29.9 µM; in experiment [4] it was 4.24 µM; in experiment [5], 20.9 µM; in [6], 16 µM. The TGI stood at 37.3 µM in experiment [7]; 13.1 µM in [8]; 32.8 µM in [9]; 29.3 µM in experiment [10]; 15.5 µM in experiment [11]; 29.5 µM in experiment [13]. Moreover, the TGI was found to be 29.5 µM in [14]; 14.1 µM in [19]; 38 µM in experiment [20]; 15 µM in experiment [15]; 13.3 µM in [16]; 32.9 µM in [17]. This compound displayed a TGI in experiment [18] of 30.5 µM.
As for `Oc1cc(O)c2c(c1)O[C@H](c1cc(O)c(O)c(O)c1)[C@H](O)C2`, the TGI is greater than 100 µM in experiment [1]; greater than 100 µM in experiment [2]; 39.4 µM in experiment [3]; 48.4 µM in [4]; 38.1 µM in experiment [5]; 42.9 µM in experiment [6]. Further, the TGI in experiment [7] is 32 µM; in [8], 80.7 µM; in [9], 48.7 µM; in [10], 27.6 µM; in experiment [12] it was greater than 100 µM; in [13], greater than 100 µM. The TGI came out at 61.2 µM in [14]; 42.4 µM in experiment [19]; 38.5 µM in [20]; 40.1 µM in experiment [15]; 33.5 µM in experiment [16]; 83.7 µM in experiment [17]. The compound further came in with a TGI in experiment [18] greater than 100 µM.
With `Cc1nc(N)c(N2CCNCC2)c(=O)[nH]1`, the TGI in experiment [1], in [2], in [3], in experiment [4], in experiment [5] and in [6] was greater than 100 µM each time. Besides, the TGI in [7], in experiment [8], in [9], in [10], in experiment [13] and in experiment [14] was greater than 100 µM each time. The TGI in experiment [19], in [20], in experiment [15], in experiment [16], in experiment [17] and in experiment [18] was greater than 100 µM in each case.
